Measured values taken from publication PMC5986654, “Combined HAT/EZH2 modulation leads to cancer-selective cell death” (Oncotarget, 2018).

Tests used:
HDAC1 = HDAC1 (Homo sapiens, UniProt Q13547); assay: HDAC1 in vitro assay; assay type: biochemical
Protocol: The HDAC1 and SIRT1 assays were performed as described previously.

CYP2C19 = molecular target: T1, CYP2C19 (Homo sapiens, UniProt P33261); assay: Cytochrome P450 inhibition, CYP2C19; assay type: in vitro ADME; conditions: human liver microsomes, probe mephenytoin
T1 construct: from tissue; host or cells: human liver microsomes
Protocol: (§1) This provided a dose of 2 mg free base material/kg when Cytochrome p450 inhibition (5 isoform iC50 administered iv in a 5 mL/kg dosing volume. determination) mouse terminal ip pK study ADME-Tox Cytochrome P450 inhibition of Compound MC2884 was given ip at a dose of 2 mg/kg MC2884 using human liver microsomes as an estimation to a group of 24 normally fed male CD1 mice in a 10 mL/ of in vitro metabolism. kg injection volume. Terminal blood samples (> 230 μL) MC2884 (0.1 μM–25 μM) was incubated with were taken under CO2 from groups of 3 mice at each of 8 human liver microsomes and NADPH in the presence time-points post dose (0.083, 0.25, 0.5, 1, 2, 4, 8 and 24 h) of a cytochrome P450 isoform-specific probe substrate. and placed into heparinized tubes. […]
(§2) All samples were stored at −20° C measuring the formation of a fluorescent metabolite. […]
(§3) Cyp2C19 inhibition (0.1 mg/mL) and NADPH (1 mM) in the presence of the probe substrate midazolam (2.5 μM) for 5 min at Six test compound samples at concentrations 37° C. […] For the CYP1A incubations, the reactions microsomes (0.5 mg/mL) and NADPH (1 mM) in the were terminated by methanol, and the formation of the presence of the probe substrate mephenytoin (25 μM) metabolite, resorufin, was monitored by fluorescence for 60 min at 37° C. […]

[1] = Mouse terminal IV PK study; assay type: in vivo; conditions: iv 2 mg/kg, male CD1 mice, plasma
Protocol: pHarmaCology male CD1 mice in a 5 mL/kg injection volume. Terminal blood samples (> 230 μL) were taken under CO2 from pharmacokinetic analysis (mice–iV, ip pK study) groups of 3 mice at each of 8 time-points post dose (0.083, 0.25, 0.5, 1, 2, 4, 8 and 24 h) and placed into heparinized
Compound was administered both intravenously and tubes. Samples were placed on ice for no longer than 30 intraperitoneally to mice. Blood samples were collected at min before centrifugation (10,000 rpm × 3 min). Plasma 8 time points over 24 hr and plasma analysed by LC-MS/ samples (>100 μL) were collected into fresh tubes and MS to determine the concentration of compound. frozen on dry ice. Number of plasma samples = 24.
The plasma time concentration profile was Consistent IV profiles were obtained, with little calculated with the main PK parameters (Co, AUClast, variability across the time-points (the average profile is t.,VD, and CL). shown in the second spreadsheet). An average half-life of […]
For ip dosing. After formulation assessment, […]
For iv dosing. Compound was dissolved at 0.4 mg/mL. […]

CYP2C9 = molecular target: T2, CYP2C9 (Homo sapiens, UniProt P11712); assay: Cytochrome P450 inhibition, CYP2C9; assay type: in vitro ADME; conditions: human liver microsomes, probe tolbutamide
T2 construct: from tissue; host or cells: human liver microsomes
Protocol: as §1, §2, §3

p300 = p300 (Homo sapiens, UniProt Q09472); assay: HAT in vitro assay, 10-dose IC50, p300; assay type: biochemical; conditions: substrate Histone H3, 3 μM Acetyl-CoA; read-out: Compound IC50 p300
MePR2B = assay: Cytotoxic effect on mesenchymal progenitor model MePR2B; assay type: cell-based; conditions: immortalized non-cancer cells

T2 sequence (P11712 whole entry): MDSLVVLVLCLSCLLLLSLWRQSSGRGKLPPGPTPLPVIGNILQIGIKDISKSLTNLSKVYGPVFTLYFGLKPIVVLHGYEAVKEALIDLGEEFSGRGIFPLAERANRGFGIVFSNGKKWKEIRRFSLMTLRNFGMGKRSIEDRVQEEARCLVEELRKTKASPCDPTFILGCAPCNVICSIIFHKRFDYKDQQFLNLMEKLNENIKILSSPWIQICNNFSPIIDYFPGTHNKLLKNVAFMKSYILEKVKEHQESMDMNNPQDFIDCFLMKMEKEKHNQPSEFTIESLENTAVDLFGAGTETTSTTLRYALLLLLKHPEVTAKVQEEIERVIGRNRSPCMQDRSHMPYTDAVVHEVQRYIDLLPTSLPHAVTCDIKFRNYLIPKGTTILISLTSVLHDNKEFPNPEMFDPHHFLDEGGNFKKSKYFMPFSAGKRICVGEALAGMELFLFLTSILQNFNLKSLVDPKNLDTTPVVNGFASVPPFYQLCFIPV
Chain of HDAC1 (Q13547 whole entry): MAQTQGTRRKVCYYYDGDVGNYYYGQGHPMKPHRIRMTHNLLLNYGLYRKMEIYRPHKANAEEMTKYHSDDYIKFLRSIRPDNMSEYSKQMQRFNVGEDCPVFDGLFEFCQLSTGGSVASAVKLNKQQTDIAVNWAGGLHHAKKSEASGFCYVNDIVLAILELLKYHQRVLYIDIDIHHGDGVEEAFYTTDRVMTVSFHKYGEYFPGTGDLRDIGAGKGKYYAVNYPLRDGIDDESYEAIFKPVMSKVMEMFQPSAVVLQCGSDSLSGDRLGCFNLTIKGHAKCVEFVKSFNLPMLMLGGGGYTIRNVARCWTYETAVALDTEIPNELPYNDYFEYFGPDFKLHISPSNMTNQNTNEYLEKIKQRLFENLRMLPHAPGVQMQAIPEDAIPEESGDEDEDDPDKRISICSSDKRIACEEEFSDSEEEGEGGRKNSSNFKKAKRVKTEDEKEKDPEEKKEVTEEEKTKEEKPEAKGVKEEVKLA
Chain of p300 (Q09472 whole entry): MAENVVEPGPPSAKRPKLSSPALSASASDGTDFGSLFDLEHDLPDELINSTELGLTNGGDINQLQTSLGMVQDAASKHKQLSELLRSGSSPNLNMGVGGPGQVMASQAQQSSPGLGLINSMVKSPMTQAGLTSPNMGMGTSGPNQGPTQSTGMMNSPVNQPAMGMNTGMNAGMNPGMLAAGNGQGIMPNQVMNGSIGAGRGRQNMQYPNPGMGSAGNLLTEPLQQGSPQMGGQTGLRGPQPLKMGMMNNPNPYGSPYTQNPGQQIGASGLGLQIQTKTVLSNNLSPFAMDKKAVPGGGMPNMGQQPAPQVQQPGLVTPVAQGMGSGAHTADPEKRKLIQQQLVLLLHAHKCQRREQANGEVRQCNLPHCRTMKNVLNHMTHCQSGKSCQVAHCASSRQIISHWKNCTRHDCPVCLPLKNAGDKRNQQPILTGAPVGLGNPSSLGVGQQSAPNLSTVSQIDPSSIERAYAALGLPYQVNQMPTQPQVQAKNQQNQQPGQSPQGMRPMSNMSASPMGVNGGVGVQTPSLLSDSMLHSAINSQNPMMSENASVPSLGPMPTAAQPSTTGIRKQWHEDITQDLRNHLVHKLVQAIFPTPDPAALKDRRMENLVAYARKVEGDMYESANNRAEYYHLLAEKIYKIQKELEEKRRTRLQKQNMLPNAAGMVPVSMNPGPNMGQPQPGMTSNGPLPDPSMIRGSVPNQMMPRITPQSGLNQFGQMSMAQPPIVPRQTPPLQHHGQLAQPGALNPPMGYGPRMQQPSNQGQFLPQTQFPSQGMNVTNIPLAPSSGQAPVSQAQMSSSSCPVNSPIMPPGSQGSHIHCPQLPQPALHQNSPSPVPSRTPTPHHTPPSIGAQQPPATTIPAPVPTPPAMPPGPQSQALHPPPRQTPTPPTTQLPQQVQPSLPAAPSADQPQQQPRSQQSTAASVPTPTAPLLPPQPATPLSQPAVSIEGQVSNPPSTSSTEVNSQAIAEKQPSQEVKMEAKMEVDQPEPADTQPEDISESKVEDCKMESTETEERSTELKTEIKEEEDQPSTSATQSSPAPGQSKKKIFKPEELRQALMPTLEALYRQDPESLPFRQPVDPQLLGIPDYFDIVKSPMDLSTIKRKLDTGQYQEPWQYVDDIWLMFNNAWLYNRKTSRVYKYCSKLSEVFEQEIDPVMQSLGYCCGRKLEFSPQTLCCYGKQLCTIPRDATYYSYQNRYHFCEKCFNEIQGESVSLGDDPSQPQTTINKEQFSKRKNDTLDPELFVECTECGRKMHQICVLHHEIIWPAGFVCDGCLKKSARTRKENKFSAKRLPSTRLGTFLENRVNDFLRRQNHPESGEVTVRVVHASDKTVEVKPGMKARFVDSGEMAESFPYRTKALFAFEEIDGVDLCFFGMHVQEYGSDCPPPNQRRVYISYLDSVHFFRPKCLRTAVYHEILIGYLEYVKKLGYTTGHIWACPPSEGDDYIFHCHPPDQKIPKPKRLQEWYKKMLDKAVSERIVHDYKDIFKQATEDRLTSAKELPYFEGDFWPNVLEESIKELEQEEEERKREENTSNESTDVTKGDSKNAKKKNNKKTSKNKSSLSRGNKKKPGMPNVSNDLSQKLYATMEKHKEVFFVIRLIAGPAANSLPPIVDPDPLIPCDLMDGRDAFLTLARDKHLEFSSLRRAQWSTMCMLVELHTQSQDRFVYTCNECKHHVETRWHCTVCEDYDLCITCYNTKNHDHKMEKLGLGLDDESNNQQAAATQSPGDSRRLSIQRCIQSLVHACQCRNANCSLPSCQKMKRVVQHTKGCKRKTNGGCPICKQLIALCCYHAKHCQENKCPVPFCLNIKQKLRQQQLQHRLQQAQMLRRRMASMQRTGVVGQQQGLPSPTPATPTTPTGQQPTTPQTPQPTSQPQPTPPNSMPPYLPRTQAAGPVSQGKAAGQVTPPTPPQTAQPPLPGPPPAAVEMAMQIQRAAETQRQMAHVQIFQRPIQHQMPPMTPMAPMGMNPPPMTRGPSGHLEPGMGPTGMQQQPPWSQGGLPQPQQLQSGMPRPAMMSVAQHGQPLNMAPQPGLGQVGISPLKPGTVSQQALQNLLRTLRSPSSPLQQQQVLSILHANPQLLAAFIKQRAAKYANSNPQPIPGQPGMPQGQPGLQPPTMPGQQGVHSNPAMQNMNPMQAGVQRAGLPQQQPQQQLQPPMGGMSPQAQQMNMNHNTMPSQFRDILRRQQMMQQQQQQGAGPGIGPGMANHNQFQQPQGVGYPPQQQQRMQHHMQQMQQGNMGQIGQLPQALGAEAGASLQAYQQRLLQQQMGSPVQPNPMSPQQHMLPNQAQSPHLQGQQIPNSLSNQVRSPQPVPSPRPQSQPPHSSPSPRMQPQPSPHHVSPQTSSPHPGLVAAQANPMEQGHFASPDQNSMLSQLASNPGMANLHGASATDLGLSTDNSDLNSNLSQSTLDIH
T1 sequence (P33261 whole entry): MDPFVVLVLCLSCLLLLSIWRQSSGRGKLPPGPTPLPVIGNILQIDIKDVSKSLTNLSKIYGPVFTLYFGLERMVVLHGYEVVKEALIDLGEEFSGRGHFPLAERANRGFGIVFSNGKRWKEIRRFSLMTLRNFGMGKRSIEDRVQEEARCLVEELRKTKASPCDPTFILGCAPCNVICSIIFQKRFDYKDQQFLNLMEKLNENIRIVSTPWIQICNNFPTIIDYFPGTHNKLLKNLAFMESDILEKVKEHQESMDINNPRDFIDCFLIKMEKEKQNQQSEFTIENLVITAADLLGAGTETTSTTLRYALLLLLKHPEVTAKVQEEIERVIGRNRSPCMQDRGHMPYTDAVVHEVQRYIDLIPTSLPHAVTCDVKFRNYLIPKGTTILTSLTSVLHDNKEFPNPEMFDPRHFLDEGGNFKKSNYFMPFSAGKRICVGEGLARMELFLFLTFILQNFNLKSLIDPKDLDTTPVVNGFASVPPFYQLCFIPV

## O=C1/C(=C/c2cccc(Br)c2)CN(Cc2ccccc2)C/C1=C\c1cccc(Br)c1 [MC2884]
HDAC1
  HDAC modulating action: no activity
CYP2C19
  IC50: > 25 µM
[1]
  half-life: 4.58 h
CYP2C9
  IC50: > 25 µM
p300
  IC50: 0.456 µM
MePR2B
  cytotoxic effect on MePR2B: insensitive
